Results reported in patent publication US8586552B2, “4,6-substituted 2,5-dideoxystreptamine aminoglycoside antibiotics” (SelectX Pharmaceuticals, Inc., priority 2012, dated 2013).
≈ marks a conversion by molar mass, not a printed value.

Legend:
Format in all cases: cell-based
[1] = test system: Pseudomonas aeruginosa (Pae, PAWT, ATCC #27853); assay: MIC against Pseudomonas aeruginosa reference strain PAWT; settings: ATCC27853; Pseudomonas aeruginosa wild type PAWT
Source text: (§1) For evaluation of efficacy, we assembled panels of representative gram-negative pathogens, including Pseudomonas aeruginosa (Pae, PAWT, ATCC #27853), Klebsiella pneumoniae (Kpn, KPWT, ATCC #700603), Acinetobacter baumannii (Aba, ABWT, ATCC #BAA-747) and Escherichia coli (Eco, ECWT, ATCC #25922). These reference strains are useful indicator organisms to characterize compound activity against bacteria from a pathogenic genus in the absence of multiple resistance mechanisms. Two strains (PAWT and ECWT) are reference strains cited within the Clinical and Laboratory Standards Institute (CLSI) Standards for susceptibility testing by Minimum Inhibitory Concentration (MIC) (SXPS2) and are well suited for quality control. ABWT and ECWT are widely susceptible to aminoglycoside antibiotics, whereas PAWT and KPWT harbor a single aminoglycoside-modifying enzyme (AGME) that targets 4,6-substituted-2-deoxystreptamine AGs. […]

[2] = test system: Klebsiella pneumoniae (Kpn, KPWT, ATCC #700603); assay: MIC against Klebsiella pneumoniae reference strain KPWT; settings: ATCC700603; Klebsiella pneumoniae KPWT, Table 2
Source text: as §1, with “These reference strains are useful indicator organisms to characterize compound activity against bacteria from a pathogenic genus in the absence of multiple resistance mechanisms.” left out

[3] = test system: Acinetobacter baumannii (Aba, ABWT, ATCC #BAA-747); assay: MIC against Acinetobacter baumannii reference strain ABWT; settings: ATCCBAA747
Source text: as §1

[4] = test system: Escherichia coli (Eco, ECWT, ATCC #25922); assay: MIC against Escherichia coli reference strain ECWT; settings: ATCC25922
Source text: For evaluation of efficacy, we assembled panels of representative gram-negative pathogens, including Pseudomonas aeruginosa (Pae, PAWT, ATCC #27853), Klebsiella pneumoniae (Kpn, KPWT, ATCC #700603), Acinetobacter baumannii (Aba, ABWT, ATCC #BAA-747) and Escherichia coli (Eco, ECWT, ATCC #25922). These reference strains are useful indicator organisms to characterize compound activity against bacteria from a pathogenic genus in the absence of multiple resistance mechanisms. Two strains (PAWT and ECWT) are reference strains cited within the Clinical and Laboratory Standards Institute (CLSI) Standards for susceptibility testing by Minimum Inhibitory Concentration (MIC) (SXPS2) and are well suited for quality control. ABWT and ECWT are widely susceptible to aminoglycoside antibiotics, whereas PAWT and KPWT harbor a single aminoglycoside-modifying enzyme (AGME) that targets 4,6-substituted-2-deoxystreptamine AGs.

[5] = test system: Pseudomonas aeruginosa PR1 (clinical isolate with intermediate aminoglycoside resistance); assay: MIC against Pseudomonas aeruginosa clinical isolate PR1; settings: Pseudomonas aeruginosa resistant strain PR1
Source text: (§2) Pseudomonas aeruginosa is a prominent nosocomial pathogen. In addition to intrinsic antibiotic resistance to several antibiotics, Pseudomonas has acquired multiple additional mechanisms of resistance. As a result, therapeutic options for the treatment of infections caused by Pseudomonas aeruginosa are limited. We acquired clinical isolates of Pseudomonas aeruginosa (Micromyx LLC, Kalamazoo, Mich.), and used this panel to test compounds for Pseudomonicidal activity. […] For each strain and antibiotic, the mechanism(s) of resistance was inferred from the resistance profile. The presence of specific AGMEs was confirmed by colony PCR.

[6] = test system: Pseudomonas aeruginosa PR2 (clinical isolate with intermediate aminoglycoside resistance); assay: MIC against Pseudomonas aeruginosa clinical isolate PR2; settings: Pseudomonas aeruginosa resistant strain PR2
Source text: as §2

[7] = test system: Pseudomonas aeruginosa PR3 (high-level, efflux-mediated, pan-aminoglycoside resistance); assay: MIC against Pseudomonas aeruginosa clinical isolate PR3; settings: Pseudomonas aeruginosa, read-out: MIC PR3
Source text: as §2

[8] = test system: Klebsiella pneumoniae screening panel KPWT, KR1, KR2, KR3; assay: Klebsiella pneumoniae screening panel (KPWT, KR1, KR2, KR3), reference AGs
Source text: Klebsiella pneumoniae (Kpn) and Escherichia coli (Eco) are gram-negative (like Pae), enteric pathogens with increasing clinical relevance. Many clinical isolates of Kpn and Eco harbor extended-spectrum beta-lactamases and are no longer sensitive to most beta-lactam antibiotics. We acquired clinical isolates of Klebsiella pneumoniae and Escherichia coli (Micromyx LLC, Kalamazoo, Mich.) and used this panel to test compounds for anti-enteric activity.

[9] = test system: Acinetobacter baumannii indicator strains (ABWT and clinical isolates); assay: Acinetobacter baumannii indicator strain panel, reference AGs; settings: read-out: activity (MIC) against 3 of the 4 indicator strains
Source text: Acinetobacter baumannii is another clinically important and very challenging gram negative pathogen. Members of the Acinetobacter genus, including baumannii, have a remarkable ability to upregulate and acquire resistance determinants. Coupled with its ability to survive for prolonged periods in a hospital environment, A. baumannii is an emerging threat for healthcare institutions globally. We acquired clinical isolates of Acinetobacter baumannii and used this panel to test compounds for anti-Acinetobacter activity. We first tested reference AGs against our panel of Aba strains.

`NCC[C@H](O)C(=O)N[C@@H]1C[C@H](N)[C@@H](O[C@H]2O[C@H](CN)CC[C@H]2N)[C@H](O)[C@H]1O[C@H]1O[C@H](CO)[C@@H](O)[C@H](N)[C@H]1O` [arbekacin] gave an MIC [1] of 0.5 µg/mL (≈ 0.905 µM), an MIC [2] of 0.25 to 0.5 µg/mL (≈ 0.452 to 0.905 µM) and an MIC [3] of 0.5 µg/mL (≈ 0.905 µM). The MIC [4] was 1 µg/mL (≈ 1.81 µM), the MIC [5] was 8 µg/mL (≈ 14.5 µM) and the MIC [6] was 8 to 16 µg/mL (≈ 14.5 to 29 µM). The MIC [7] was 16 µg/mL (≈ 29 µM), the “potency against Klebsiella pneumoniae test panel” value [8] was “potency against 3 of 4 strains tested” and the MIC [9] was at most 8 µg/mL.
